Reference: patent publication US20130171073A1 (CEDARS-SINAI MEDICAL CENTER, priority 2010, published 2013)
“Also recorded” adds a separate entry of the source. One block for each molecule: values may come before it.

How the values were obtained:
[1] = Insulin tolerance test in adult zebrafish; type: in vivo; conditions: 0.1 unit/100 mg
Description: Zebrafish glucocorticoid steroidogenic cells are arranged as epithelial cell layers (arrowheads) in association with the renal head posterior cardinal vein (PCV) 28. […] Glucose tolerance tests were performed in 72 Tg:pomc-pttg and WT fish. Zebrafish was given ad lib feeding of regular diet for one hour (grey column) after 16 hours of fasting. Blood glucose was measured at different time points after re-feeding. Glucose levels are presented as mean±SE (AUC, p<0.0001). (C) Insulin tolerance tests in Tg:pomc-pttg and WT fish. […] (D) Oil red O(ORO) staining of liver sections reveal hepatic lipid accumulation in Tg:Pomc-pttg transgenics. (E) Area distribution and intensity of hepatic ORO staining were scored (mean±SE, *, p<0.01). […] Top, Tg:Pomc-pttg zebrafish (Tg) with gross pericardial fluid accumulation (arrow) compared with wildtype (WT) at 24 months. […]
To determine the metabolic impact of hypercortisolism in Tg:Pomc-Pttg zebrafish, adult Tg:Pomc-Pttg and WT fish were subjected to 16 hour fasting followed by ad libitum feeding of regular diet for one hour. […] Because teleost fish are glucose intolerant due to blunted peripheral responses to insulin^29, and glucocorticoids induce insulin resistance in mammals, insulin sensitivity was assessed by testing blood glucose responses to intraperitoneally administered insulin. […]

[2] = system: pituitary POMC cells overexpressing zPttg; assay: In vivo treatment of Tg:Pomc-Pttg; POMC-eGFP zebrafish embryos with CDK inhibitors, pituitary POMC-eGFP fluorescence; conditions: for reduction in pituitary POMC-eGFP expression compared with controls: 50 μM in embryo medium, control 0.2% DMSO
Description: (§1) Results represent one of three similar experiments.
(§2) WT and transgenic embryos were examined at various developmental stages under a fluorescein isothiocyanate filter on an Axioplan-2 microscope (Carl Zeiss). Live embryo images were generated with an Axiocam video system (Carl Zeiss). Fluorescence intensity of POMC-GFP-positive cells was measured by the area of interest function in Openlab software (Improvision). For confocal imaging, images were captured in a Z-series by using a TCS SP confocal microscope (Leica Microsystems). GFP was detected at a spectral range from 507 to 550 nm, RFP from 585 to 690 nm, and DAPI from 460 to 480 nm. Images were prepared using Leica LCS lite, Volocity 5.2 (Improvision), and Photoshop 7.0 (Adobe). Pituitary GFP and RFP intensity and area were measured using Volocity 5.2 (Improvision). Lipid Staining Liver cryosections were stained with oil redO (Sigma-Aldrich) per manufacturer's protocol. Lipid staining was scored based upon area distribution (>50% positive cells, 2 points; <50% but >10%, 1 point; <10%, 0 points) and intensity [strong, large (size of cell) lipid droplets, 2 points; weak, small (smaller than cell size) lipid droplets, 1 point; negative, 0 points].

zebrafish embryos = assay: Gross morphology / development of zebrafish embryos exposed to CDK inhibitors; conditions: 50 μM, starting at 18 hpf, observed by 40 hpf
Description: (C) In vivo treatment of Tg:Pomc-Pttg; Pomc-eGFP embryos with different small molecule CDK inhibitors (50 μM) or 0.2% DMSO as control from 18-40 hpf. 100-150 embryos were treated with each compound at a time. Representative images of live embryos are shown with gross morphology (right panels) and pituitary Pomc-GFP positive cells at higher magnification (left panels) at 40 hpf. […] (D) Relative expression of pituitary Pomc-eGFP fluorescence were analyzed using Velocity 5.2 (Improvision) (mean±SE of relative expression, n=7 randomly picked embryos from 100-150 embryos of each group). […] Results represent one of three similar experiments. Scale bar, 50 μm. *, p<0.02; **, p<0.000005.
Tg:Pomc-Pttg; POMC-eGFP double transgenic embryos were exposed to each compound added to the embryo culture medium.
Dexamethasone (Sigma) was dissolved in distilled water, R-roscovitin (Selleck Chemicals), flavopiridol (Selleck Chemicals), PD0332991 (Selleck Chemicals), olomoucine (Cayman Chemical Co.), and CAY10578 (Cayman Chemical Co.) were dissolved in 0.2% DMSO at a stock concentration of 1 mM, and diluted in fish medium immediately before adding to live embryos at the stages indicated.

[3] = system: pituitary lactotrophs (Prl-RFP); assay: In vivo treatment of Tg:Pomc-Pttg; Prl-RFP zebrafish embryos, pituitary Prl-RFP fluorescence; conditions: 50 μM, 18 to 48 hpf
Description: as §1, §2

[4] = system: mouse pituitary ACTH-secreting tumor AtT20 cell line; assay: Wst-1 cell proliferation assay in AtT20 cells; conditions: 1−2×10^−5 M
AtT20 cells [5] = assay: ACTH radioimmunoassay of AtT20 culture medium; conditions: AtT20 cells vs vehicle
AtT20 cells [6] = assay: Senescence (β-galactosidase expression) in AtT20 cells; conditions: 10 μM, 48 hours
[7] = system: AtT20 corticotroph tumor xenografts; assay: Plasma ACTH and serum corticosterone in AtT20 xenograft-bearing nude mice; conditions: 150 mg/kg oral gavage twice daily, three weeks
Description: (§3) Athymic nude mice were subcutaneously inoculated with corticotroph tumor AtT20 cells (1×10^5 cells). […] (D) Blood was collected from each animal for measurement of plasma ACTH and serum corticosterone levels.
Mouse corticotroph tumor AtT20 cells (−1×10^5) were inoculated s.c. into 6-wk-old female nu/nu mice. […] After 3 wk of treatment, mice were killed by CO2 inhalation, and tumors were dissected, weighted, and snapfrozen for further analysis.

[8] = system: AtT20 corticotroph tumor xenografts; assay: AtT20 corticotroph tumor xenograft in athymic nude mice, tumor growth and tumor protein expression; conditions: 150 mg/kg oral gavage twice daily
Description: as §3
Animal experiments were performed in accordance with Cedars-Sinai Institutional Animal Care and Use committee guidelines. Mouse corticotroph tumor AtT20 cells (−1×10^5) were inoculated s.c. into 6-wk-old female nu/nu mice. […] After 3 wk of treatment, mice were killed by CO2 inhalation, and tumors were dissected, weighted, and snapfrozen for further analysis.
Protein samples were prepared in RIPA buffer (Sigma), separated on NuPAGE Novex Bis-Tris Gels (Invitrogen), and transferred onto PVDF membrane (Millipore) before blotting with primary antibody [cyclin E, 1:500 (Abcam); PTTG, 1:1,000 (Abcam); β-actin, 1:5,000 (Sigma); and p21, 1:1,000, p27, 1:500, p57, 1:1,000, pRb821, 1:1,000 (Santa Cruz Biotechnology)] at 4° C. overnight. After washes with 0.5% Tween-20 in Tris-buffered saline solution, membranes were incubated with horseradish peroxidaselinked secondary antibody (GE Healthcare) and developed using ECL Western blotting detection reagents (GE Healthcare).

[9] = 18-40 hpf, Tg:Pomc-Pttg, POMC-eGFP embryos

Molecule: insulin: insulin injected intraperitoneally for insulin tolerance test
blood glucose response to intraperitoneal insulin ([1]; Tg:Pomc-Pttg fish, up to 90 minutes after injection): no significant change
blood glucose response to intraperitoneal insulin ([1]; WT fish, 30 minutes after injection): brisk hypoglycemic response

embryonic growth / development of treated embryos (zebrafish embryos): no apparent growth defect
Molecule: Cn1cnc2c(NCc3ccccc3)nc(NCCO)nc21 [olomoucine]
reduction in pituitary POMC-eGFP expression compared with controls [2, 9]: approximately 20%
relative expression of pituitary POMC-eGFP fluorescence (mean±S.E.) ([2]; 50 μM, 18-40 hpf, n=7, control 1.0±0.08): 0.8±0.07

Molecule: CN1CC[C@@H](c2c(O)cc(O)c3c(=O)cc(-c4ccccc4Cl)oc23)[C@H](O)C1 [flavopiridol, 2-(2-chlorophenyl)-5,7-dihydroxy-8-((3S,4S)-3-hydroxy-1-methylpiperidin-4-yl)-4H-chromen-4-one]
embryonic growth / development of treated embryos (zebrafish embryos): early developmental defect; also recorded: retarded early embryonic development

Molecule: O=C1NCCc2[nH]c(-c3ccncc3)cc21 [CAY10572]
change in pituitary POMC-eGFP expression compared with controls ([2]; 50 μM, 18-40 hpf, Tg:Pomc-Pttg, POMC-eGFP embryos): no significant change

Molecule: CC[C@H](CO)Nc1nc(NCc2ccccc2)c2ncn(C(C)C)c2n1 [R-roscovitine]
reduction in pituitary POMC-eGFP expression compared with controls [2, 9]: approximately 40%
reduction of POMC-eGFP expression compared with control ([2]; 50 μM, 18 to 48 hpf, Tg:Pomc-Pttg, POMC-eGFP embryos): greater than 50%
effect on Prl-RFP expression [3]: no effect
number of viable cells (Wst-1) ([4]; at 24 and 48 hours): decreased number of viable cells
cell number ([4]; by 24 hours): decreased cell number
ACTH concentration in culture medium (RIA) (AtT20 cells [5]): decreased
β-galactosidase expression (senescence) (AtT20 cells [6]): increased
reduction in plasma ACTH levels [7]: > 50%
reduction in serum corticosterone levels [7]: ~50%
embryonic growth / development of treated embryos (zebrafish embryos): no apparent growth defect
numbers of PCNA and ACTH co-expressing cells in tumors ([8]; 3 weeks): decreased
tumor volumes ([8]; 5 days per week, 3 weeks): decreased
weight reduction of dissected tumor xenografts ([8]; 5 days per week, three weeks): ~50%
weight of dissected tumor xenografts (mean±S.E.) ([8]; 5 days per week, three weeks, vehicle 40.0±4.7 mg, n=13-14): 21.0 ± 2.6 mg
ACTH protein expression in tumor specimens (Western-blot and immunohistochemistry) ([8]; three weeks): suppressed
PCNA protein expression in tumor specimens (Western-blot and immunohistochemistry) ([8]; three weeks): suppressed
